Measured values published in patent publication US11684614B2, “Formulations of hydroxypyridonate actinide/lanthanide decorporation agents” (priority 2017, dated 2023).
Where “and” joins values, the source holds several entries; their conditions need not be identical. Equal entries are not always repeated.

Assay: Repeated-treatment efficacy for removing an intravenous dose of 238Pu (excretion, tissue retention, clinical observations), female and male arms;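 for % Recovered Dose ART: abdominal tissue remainder incl GI tract reproductive organs spleen bladder and fat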
Format: in vivo, Swiss-Webster mice
Conditions: listed as 3,4,3-LI(1,2-HOPO); for % Recovered Dose Kidney / % Recovered Dose Liver / % Recovered Dose SKEL / % Recovered Dose SOFT / % Recovered Dose Total Feces / % Recovered Dose ART / % Recovered Dose Combined Body / % Recovered Dose Combined Excreta / % Recovered Dose Total Urine / % Recovered Dose GI Tract / % Recovered Dose Soft Tissue / % Recovered Dose Total Bone: male animals
Description: The objective of this study was to characterize the efficacy of 3,4,3-L1(1,2-HOPO) at enhancing elimination from an internal plutonium burden in female and male Swiss-Webster mice administered a soluble citrate complex of ^238Pu and treated multiple times, starting at 24 hours after the exposure. Efficacy was evaluated by comparing the tissue contents, urinary and fecal excretions of ^238Pu in treated animals versus untreated animals.
The medical countermeasure 3,4,3-L1(1,2-HOPO) was administered parenterally (ip) or orally (po) via consecutive injections or gavages (six daily or twelve twice daily) starting at 24 hours post contamination at the following four selected doses: 30 μmol/kg ip, 150 μmol/kg po, 300 μmol/kg po, and 600 μmol/kg po (equivalent to respective approximate human doses range of […], using the accepted conversion system of mouse doses into human equivalent doses—HED—based on body surface area). Oral doses also included the permeability enhancer selected during formulation development work.
• Challenge isotope: ^238Pu • Challenge dose: 25 nCi (i.e., approximately 0.8 μCi/kg) • Route of contamination: Intravenous (iv) tail-vein • Route of treatment: Intraperitoneal Injection (ip) or Oral (po) • Frequency of treatment: Multiple (once- or twice-daily for 6 days) doses, starting 24 hr postcontamination • Treatment dose calculation: Dose calculations (mg/kg or μmol/kg) for the decorporation agent were based on the individual body weight measured after contamination. • Study Duration: 11 days, in-life
c. […] Test article and control dose formulations were prepared within 1 day of dose administration, by weighing out the appropriate amount of test article, dispersing in vehicle. For ip solutions, the test article was used alone, while for oral suspensions, a mixture of test article and excipient (90:10, w:w) was used. The pH was adjusted to 7.0-7.4 for ip administration and 5.0-5.5 for oral administration with sterile NaOH. Dose formulations were prepared at room temperature and filter-sterilized. • Storage: 2-8° C.; refrigerated; protected from light. • Characterization: The concentration of each test article formulation was verified by high-performance liquid chromatography-mass spectrometry. • Test Article Handling: Test, reference, and control article formulations were handled with the use of eye protection, gloves, and a protective laboratory coat. • Correct Dose Assurance: The test article was weighed with calibrated balances. The administration of each dose formulation was properly documented, and the amount administered to each animal recorded.
e. Experimental Procedures (In-Life Evaluations and Euthanasia) • Contamination: Single administration by intravenous (iv) tail-vein injection (0.2 mL injection volume) under isoflurane anesthesia. Three standard 0.2 mL injections were performed into polyethylene bottles and pre-loaded with aliquots of concentrated nitric acid on each injection day. Six female and six male mice were culled for necropsy 1 hr post-contamination and were used as standards. A11 standards were processed and counted together with the final samples to allow verification of the contamination dose. • Dose Administration: Single administration by intraperitoneal injection (ip) or oral gavage (po) under isoflurane anesthesia. • Mortality/Morbidity: Assessed at least once daily. • Clinical Observations: Recorded once daily (4 hr post-dose on day of treatment), or more often as clinical signs warranted. […]

[1] = Day-11 necropsy, animal group I
[2] = Day-11 necropsy, animal group L
[3] = Day-11 necropsy, animal group M
[4] = male arm table, Day 11 necropsy, animal group I
[5] = male arm table, Day 11 necropsy, animal group L
[6] = male arm table, Day 11 necropsy, animal group M

O=C(NCCCN(CCCCN(CCCNC(=O)c1cccc(=O)n1O)C(=O)c1cccc(=O)n1O)C(=O)c1cccc(=O)n1O)c1cccc(=O)n1O [3,4,3-L1(1,2-HOPO)]
% Recovered Dose Kidney (Day-7 necropsy, animal group C): 0.22% and 0.15% and 0.21% and 0.17% | % Recovered Dose Liver (Day-7 necropsy, animal group C): 15.72% and 12.80% and 16.24% and 16.85% | % Recovered Dose SKEL (Day-7 necropsy, animal group C): 24.75% and 21.49% and 23.68% and 17.13% | % Recovered Dose SOFT (Day-7 necropsy, animal group C): 2.28% and 2.12% and 3.24% and 2.82% | % Recovered Dose Total Feces (Day-7 necropsy, animal group C): 34.40% and 32.67% and 50.44% and 35.35% | % Recovered Dose ART (Day-7 necropsy, animal group E): 1.02% and 1.34% and 1.21% and 1.33% | % Recovered Dose Combined Body (Day-7 necropsy, animal group E): 30.49% and 40.14% and 34.97% and 37.95% | % Recovered Dose Combined Excreta (Day-7 necropsy, animal group E): 69.51% and 59.86% and 65.03% and 62.05% | % Recovered Dose Kidney (Day-7 necropsy, animal group E): 0.14% and 0.21% and 0.13% and 0.20% | % Recovered Dose Liver (Day-7 necropsy, animal group E): 9.72% and 15.67% and 11.76% and 13.58% | % Recovered Dose SKEL (Day-7 necropsy, animal group E): 17.72% and 20.95% and 20.71% and 20.84% | % Recovered Dose SOFT (Day-7 necropsy, animal group E): 1.89% and 1.96% and 1.16% and 2.00% | % Recovered Dose Total Feces (Day-7 necropsy, animal group E): 40.90% and 40.04% and 39.60% and 39.91% | % Recovered Dose Total Urine (Day-7 necropsy, animal group E): 28.61% and 19.82% and 25.43% and 22.13% | % Recovered Dose ART (Day-7 necropsy, animal group F): 1.03% and 1.92% and 2.25% and 1.33% | % Recovered Dose Combined Body (Day-7 necropsy, animal group F): 30.37% and 39.36% and 36.59% and 31.04% | % Recovered Dose Combined Excreta (Day-7 necropsy, animal group F): 69.63% and 60.64% and 63.41% and 68.96% | % Recovered Dose Kidney (Day-7 necropsy, animal group F): 0.17% and 0.21% and 0.42% | % Recovered Dose Liver (Day-7 necropsy, animal group F): 7.14% and 17.14% and 15.20% and 10.27% | % Recovered Dose SKEL (Day-7 necropsy, animal group F): 20.00% and 18.02% and 16.63% and 16.58% | % Recovered Dose SOFT (Day-7 necropsy, animal group F): 2.03% and 2.08% and 2.10% and 2.66% | % Recovered Dose Total Feces (Day-7 necropsy, animal group F): 42.75% and 36.05% and 44.44% and 38.86% | % Recovered Dose Total Urine (Day-7 necropsy, animal group F): 26.88% and 24.59% and 18.97% and 30.09% | % Recovered Dose Combined Body [1]: 15.90% and 20.53% and 19.46% and 22.16% and 16.51% and 22.02% and 21.03% and 23.25% | % Recovered Dose Combined Excreta [1]: 84.10% and 79.47% and 80.54% and 77.84% and 83.49% and 77.98% and 78.97% and 76.75% | % Recovered Dose GI Tract [1]: 0.43% and 0.47% and 0.44% and 0.49% and 0.64% and 0.58% and 0.71% | % Recovered Dose Kidney [1]: 0.08% and 0.11% and 0.10% and 0.14% and 0.13% and 0.16% | % Recovered Dose Liver [1]: 2.60% and 1.91% and 2.22% and 2.29% and 3.02% and 2.09% and 2.92% and 2.34% | % Recovered Dose Soft Tissue [1]: 1.04% and 0.98% and 0.83% and 1.42% and 1.37% and 1.22% and 1.20% | % Recovered Dose Total Bone [1]: 11.74% and 17.07% and 15.87% and 17.81% and 11.38% and 18.21% and 16.06% and 19.05% | % Recovered Dose Total Feces [1]: 54.04% and 60.47% and 51.78% and 38.48% and 49.18% and 43.78% and 44.59% and 43.58% | % Recovered Dose Combined Body [2]: 38.48% and 43.87% and 28.88% and 28.44% and 32.53% and 32.57% and 26.76% and 36.08% | % Recovered Dose Combined Excreta [2]: 61.52% and 56.13% and 71.12% and 71.56% and 64.47% and 67.43% and 73.24% and 63.92% | % Recovered Dose GI Tract [2]: 0.99% and 1.04% and 1.13% and 1.03% and 1.21% and 0.97% and 0.90% and 0.93% | % Recovered Dose Kidney [2]: 0.10% and 0.15% and 0.19% and 0.14% | % Recovered Dose Soft Tissue [2]: 2.91% and 2.09% and 2.06% and 2.29% and 2.57% and 2.02% and 1.97% and 1.69% | % Recovered Dose Total Bone [2]: 25.77% and 24.60% and 16.37% and 19.43% and 22.08% and 18.56% and 15.85% and 25.23% | % Recovered Dose Total Feces [2]: 41.70% and 35.40% and 43.87% and 46.74% and 38.04% and 37.30% and 46.07% and 33.53% | % Recovered Dose Total Urine [2]: 19.82% and 20.73% and 27.24% and 24.82% and 26.43% and 30.12% and 27.17% and 30.39% | % Recovered Dose Combined Body [3]: 20.04% and 21.39% and 28.64% and 34.45% and 33.00% and 30.60% and 25.58% and 27.62% | % Recovered Dose Combined Excreta [3]: 79.96% and 78.61% and 71.36% and 65.55% and 67.00% and 69.40% and 74.42% and 72.38% | % Recovered Dose GI Tract [3]: 0.61% and 0.50% and 0.89% and 0.48% and 0.99% and 1.00% and 0.73% and 0.76% | % Recovered Dose Kidney [3]: 0.08% and 0.17% and 0.28% and 0.16% and 0.25% and 0.24% and 0.20% and 0.13% | % Recovered Dose Liver [3]: 3.86% and 3.49% and 8.37% and 6.17% and 12.45% and 9.96% and 3.83% and 6.08% | % Recovered Dose Soft Tissue [3]: 1.50% and 1.55% and 1.52% and 2.24% and 2.53% and 2.16% and 2.01% and 1.95% | % Recovered Dose Total Bone [3]: 13.99% and 15.68% and 17.58% and 25.41% and 16.78% and 17.24% and 18.80% and 18.71% | % Recovered Dose Total Feces [3]: 53.86% and 46.68% and 46.45% and 35.88% and 40.81% and 59.45% and 36.72% and 39.43% | % Recovered Dose Urine per Day, Day 2 [4]: 3.96% and 5.51% and 4.41% and 4.63% and 4.05% and 5.30% and 3.86% and 5.05% | % Recovered Dose Urine per Day, Day 3 [4]: 1.65% and 1.23% and 3.48% and 2.00% and 1.41% and 1.46% and 1.93% | % Recovered Dose Urine per Day, Day 4 [4]: 0.77% and 0.85% and 0.98% and 1.08% and 0.65% and 0.92% and 0.89% and 0.93% | % Recovered Dose Urine per Day, Day 5 [4]: 0.94% and 0.87% and 0.59% and 0.63% and 0.79% and 0.76% and 0.28% and 1.05% | % Recovered Dose Urine per Day, Day 6 [4]: 0.65% and 0.41% and 0.44% and 0.32% and 0.35% and 0.48% and 0.51% and 0.55% | % Recovered Dose Urine per Day, Day 7 [4]: 0.87% and 1.16% and 0.64% and 0.59% and 0.75% and 0.99% and 1.27% | % Recovered Dose Urine per Day, Day 8 [4]: 0.32% and 0.70% and 0.71% and 0.52% and 0.77% and 0.79% and 0.51% | % Recovered Dose Urine per Day, Day 9 [4]: 0.20% and 0.51% and 0.73% and 0.48% and 0.39% and 0.60% and 0.63% | % Recovered Dose Urine per Day, Day 10 [4]: 0.58% and 0.74% and 0.92% and 0.42% and 0.40% and 0.38% and 0.41% | % Recovered Dose Urine per Day, Day 11 [4]: 0.39% and 0.44% and 0.55% and 0.31% and 0.43% and 0.00% and 0.71% | % Recovered Dose Urine per Day, Day 1 [5]: 12.59% and 16.03% and 21.48% and 17.40% and 21.11% and 22.45% and 21.35% and 20.51% | % Recovered Dose Urine per Day, Day 2 [5]: 2.90% and 1.60% and 1.70% and 2.41% and 1.15% and 2.95% and 2.14% and 3.00% | % Recovered Dose Urine per Day, Day 3 [5]: 1.04% and 0.84% and 1.21% and 0.62% and 1.08% and 1.06% and 0.54% and 1.49% | % Recovered Dose Urine per Day, Day 4 [5]: 0.50% and 0.38% and 0.59% and 0.77% and 0.45% and 0.81% and 0.67% and 1.28% | % Recovered Dose Urine per Day, Day 5 [5]: 0.64% and 0.28% and 0.60% and 0.52% and 0.67% and 0.50% and 0.69% | % Recovered Dose Urine per Day, Day 6 [5]: 0.60% and 0.06% and 0.37% and 0.49% and 0.33% and 0.48% and 0.43% | % Recovered Dose Urine per Day, Day 7 [5]: 0.61% and 0.22% and 0.72% and 1.23% and 0.46% and 0.44% and 0.51% and 0.75% | % Recovered Dose Urine per Day, Day 8 [5]: 0.30% and 0.16% and 0.05% and 0.55% and 0.60% and 0.62% | % Recovered Dose Urine per Day, Day 9 [5]: 0.21% and 0.30% and 0.20% and 0.22% and 0.55% and 0.27% and 0.25% and 0.67% | % Recovered Dose Urine per Day, Day 10 [5]: 0.24% and 0.45% and 0.12% and 0.20% and 0.21% and 0.30% and 0.34% and 0.63% | % Recovered Dose Urine per Day, Day 11 [5]: 0.20% and 0.41% and 0.40% and 0.14% and 0.18% and 0.34% and 0.31% | % Recovered Dose Urine per Day, Day 2 [6]: 2.27% and 2.99% and 2.82% and 2.73% and 2.07% and 4.97% and 3.05% | % Recovered Dose Urine per Day, Day 3 [6]: 0.81% and 1.49% and 1.40% and 1.64% and 1.14% and 1.43% and 1.07% and 1.00% | % Recovered Dose Urine per Day, Day 4 [6]: 0.47% and 0.64% and 0.77% and 0.68% and 0.62% and 0.31% and 0.58% and 0.72%
